Measured values as given in ChEMBL document CHEMBL4680211, “Synthesis and structure-activity relationship study of water-soluble carbazole sulfonamide derivatives as new anticancer agents” (Eur J Med Chem, 2020).

Legend:
[1] = Aqueous solubility of compound in water at pH 7.4 incubated at 20 degC by HPLC-UV analysis; assay type: physicochemical
[2] = system: HepG2; experiment: Antiproliferative activity against human HepG2 cells measured after 48 hrs by SRB assay; assay type: functional, cell-based
[3] = system: MCF7; experiment: Antiproliferative activity against human MCF7 cells measured after 48 hrs by SRB assay; assay type: functional, cell-based
[4] = system: Bel-7402; experiment: Antiproliferative activity against human Bel-7402 cells measured after 48 hrs by SRB assay; assay type: functional, cell-based

| Compound | solubility [1] [µg/mL] | IC50 ([2]; Homo sapiens, HepG2, 48 h) [µM] | IC50 ([3]; Homo sapiens, MCF7, 48 h) [µM] | IC50 ([4]; Homo sapiens, Bel-7402, 48 h) [µM] | IC50 ([2]; hepg2) [µM] | IC50 ([3]; mcf7) [µM] | IC50 ([4]; bel-7402) [µM] |
| --- | --- | --- | --- | --- | --- | --- | --- |
| COc1ccc(N(CCCN2CCC(N3CCCC3)CC2)S(=O)(=O)c2ccc3c(c2)c2ccccc2n3C)c(OC)n1.Cl | > 30000 |  |  |  |  |  |  |
| COc1ccc(N(CCn2ccnc2)S(=O)(=O)c2ccc3c(c2)c2ccccc2n3C)c(OC)n1 |  | 1.25 | 4.6 | 2.59 |  |  |  |
| COc1ccc(N(CCCN2CCC3(CCN(C)CC3)C2)S(=O)(=O)c2ccc3c(c2)c2ccccc2n3C)c(OC)n1 |  | 3.59 | 21.3 | 6.21 |  |  |  |
| COc1ccc(N(CCN2CCC(N3CCCC3)CC2)S(=O)(=O)c2ccc3c(c2)c2ccccc2n3C)c(OC)n1.Cl | > 30000 |  |  |  |  |  |  |
| COc1ccc(N(CC(N)=O)S(=O)(=O)c2ccc3c(c2)c2ccccc2n3C)c(OC)n1 |  | 1.97 | 4.28 | 3.56 |  |  |  |
| COc1ccc(N(CCCN(C)C)S(=O)(=O)c2ccc3c(c2)c2ccccc2n3C)c(OC)n1 |  | 2.73 | 7.15 | 10.8 |  |  |  |
| COc1ccc(N(CCCN2CCN(C)CC2)S(=O)(=O)c2ccc3c(c2)c2ccccc2n3C)c(OC)n1 |  | 5.6 | 21 | 11.6 |  |  |  |
| COc1ccc(N(C(=O)CCN2CCCCC2)S(=O)(=O)c2ccc3c(c2)c2ccccc2n3C)c(OC)n1.Cl | 18600 |  |  |  |  |  |  |
| COc1ccc(NS(=O)(=O)c2ccc3c(c2)c2ccc(O)cc2n3C)c(OC)n1.Cl | 1.5 |  |  |  |  |  |  |
| COc1ccc(N(CCCn2ccnc2)S(=O)(=O)c2ccc3c(c2)c2ccccc2n3C)c(OC)n1 |  | 1.39 | 4.53 | 4.64 |  |  |  |
| COc1ccc(N(CCN2CCSCC2)S(=O)(=O)c2ccc3c(c2)c2ccccc2n3C)c(OC)n1 |  | 1.36 | 4.61 | 4.1 |  |  |  |
| COc1ccc(N(CCN2CCCCC2)S(=O)(=O)c2ccc3c(c2)c2ccccc2n3C)c(OC)n1.Cl | 580 |  |  |  |  |  |  |
| COc1ccc(N(CCN)S(=O)(=O)c2ccc3c(c2)c2ccccc2n3C)c(OC)n1 |  | 4.75 | 6.63 | 4.38 |  |  |  |
| COc1ccc(/C=C\c2cc(OC)c(OC)c(OC)c2)cc1O [COMBRETASTATIN A4] |  | 0.002 | 0.003 | 0.084 |  |  |  |
| COc1ccc(N(CCN2CCCC2)S(=O)(=O)c2ccc3c(c2)c2ccccc2n3C)c(OC)n1.Cl | 600 |  |  |  |  |  |  |
| COc1ccc(N(CCOC(=O)CN2CCN(C)CC2)S(=O)(=O)c2ccc3c(c2)c2ccccc2n3C)c(OC)n1 |  | 4.3 | 5.98 | 4.92 |  |  |  |
| COc1ccc(N(CCO)S(=O)(=O)c2ccc3c(c2)c2ccccc2n3C)c(OC)n1 |  | 4.04 | 1.43 | 4.13 |  |  |  |
| COc1ccc(N(CCN2CCC3(CCN(C)CC3)C2)S(=O)(=O)c2ccc3c(c2)c2ccccc2n3C)c(OC)n1 |  | 2.84 | 14.6 | 4.23 |  |  |  |
| COc1ccc(N(CCOC(N)=O)S(=O)(=O)c2ccc3c(c2)c2ccccc2n3C)c(OC)n1 |  | 5.11 |  | > 25 |  |  |  |
| COc1ccc(N(C(=O)CCN2CCN(C)CC2)S(=O)(=O)c2ccc3c(c2)c2ccccc2n3C)c(OC)n1 |  | 0.07 | 0.17 | 0.2 |  |  |  |
| COc1ccc(N(CCN2CCOCC2)S(=O)(=O)c2ccc3c(c2)c2ccccc2n3C)c(OC)n1 |  | 1.06 | 4.65 | 2.69 |  |  |  |
| COc1ccc(N(CCNC(=O)CN)S(=O)(=O)c2ccc3c(c2)c2ccccc2n3C)c(OC)n1 |  | 1.26 | 1.6 | 2.17 |  |  |  |
| COc1ccc(N(CCN2CCCC2)S(=O)(=O)c2ccc3c(c2)c2ccccc2n3C)c(OC)n1 |  | 3.19 | 5.7 | 4.98 |  |  |  |
| COc1ccc(N(CCOP(=O)(O)O)S(=O)(=O)c2ccc3c(c2)c2ccccc2n3C)c(OC)n1 |  |  |  |  | 0.74 | 1.01 | 1.15 |
| COc1ccc(N(CCN2CCCCC2)S(=O)(=O)c2ccc3c(c2)c2ccccc2n3C)c(OC)n1 |  | 2.05 | 5.82 | 4.99 |  |  |  |
| COc1ccc(N(CCCN2CCC(N3CCCC3)CC2)S(=O)(=O)c2ccc3c(c2)c2ccccc2n3C)c(OC)n1 |  | 3.89 | 15.8 | 6.24 |  |  |  |
